Measurements as given in ChEMBL document CHEMBL2440076, “New triarylpyrazoles as broad-spectrum anticancer agents: design, synthesis, and biological evaluation” (Eur J Med Chem, 2013).

Experiments:
BT-549 = experiment: Growth inhibition of human BT549 cells assessed as cell growth at 10 uM after 48 hrs by sulforhodamine B assay; format: functional; conditions: BT-549, 48 h, read-out: Activity
[1] = Growth inhibition of human Hs 578T cells assessed as cell growth at 10 uM after 48 hrs by sulforhodamine B assay; format: functional; conditions: read-out: Activity
UO-31 = experiment: Growth inhibition of human UO31 cells assessed as cell growth at 10 uM after 48 hrs by sulforhodamine B assay; format: functional; conditions: UO-31, 48 h, read-out: Activity
PC-3 = experiment: Growth inhibition of human PC3 cells assessed as cell growth at 10 uM after 48 hrs by sulforhodamine B assay; format: functional; conditions: PC-3, 48 h, read-out: Activity
SN12C = experiment: Growth inhibition of human SN12C cells assessed as cell growth at 10 uM after 48 hrs by sulforhodamine B assay; format: functional; conditions: read-out: Activity
HT-29 = experiment: Growth inhibition of human HT-29 cells after 48 hrs by sulforhodamine B assay; format: functional; conditions: HT-29, 48 h
[2] = Growth inhibition of human HCC2998 cells after 48 hrs by sulforhodamine B assay; format: functional; conditions: HCC 2998, 48 h
NCI-H23 = experiment: Growth inhibition of human NCI-H23 cells after 48 hrs by sulforhodamine B assay; format: functional; conditions: NCI-H23, 48 h
A549 = experiment: Growth inhibition of human A549/ATCC cells after 48 hrs by sulforhodamine B assay; format: functional; conditions: A549, 48 h
RPMI-8226 = experiment: Growth inhibition of human RPMI8226 cells after 48 hrs by sulforhodamine B assay; format: functional, cell-based; conditions: RPMI-8226, 48 h
K562 = experiment: Growth inhibition of human K562 cells after 48 hrs by sulforhodamine B assay; format: functional; conditions: K562, 48 h
RXF 393 = experiment: Growth inhibition of human RXF393 cells assessed as cell growth at 10 uM after 48 hrs by sulforhodamine B assay; format: functional; conditions: RXF 393, 48 h, read-out: Activity
ACHN = experiment: Growth inhibition of human ACHN cells assessed as cell growth at 10 uM after 48 hrs by sulforhodamine B assay; format: functional; conditions: read-out: Activity
786-0 = experiment: Growth inhibition of human 786-0 cells assessed as cell growth at 10 uM after 48 hrs by sulforhodamine B assay; format: functional; conditions: 786-0, 48 h, read-out: Activity
A498 = experiment: Growth inhibition of human A498 cells assessed as cell growth at 10 uM after 48 hrs by sulforhodamine B assay; format: functional; conditions: A498, 48 h, read-out: Activity
SK-OV-3 [3] = experiment: Growth inhibition of human SKOV3 cells assessed as cell growth at 10 uM after 48 hrs by sulforhodamine B assay; format: functional; conditions: SK-OV-3, 48 h, read-out: Activity
OVCAR-3 = experiment: Growth inhibition of human OVCAR3 cells assessed as cell growth at 10 uM after 48 hrs by sulforhodamine B assay; format: functional; conditions: OVCAR-3, 48 h, read-out: Activity
UACC-62 = experiment: Growth inhibition of human UACC62 cells assessed as cell growth at 10 uM after 48 hrs by sulforhodamine B assay; format: functional; conditions: UACC-62, 48 h, read-out: Activity
UACC-257 = experiment: Growth inhibition of human UACC257 cells assessed as cell growth at 10 uM after 48 hrs by sulforhodamine B assay; format: functional; conditions: UACC-257, 48 h, read-out: Activity
SK-MEL-5 [4] = experiment: Growth inhibition of human SK-MEL-5 cells assessed as cell growth at 10 uM after 48 hrs by sulforhodamine B assay; format: functional; conditions: SK-MEL-5, 48 h, read-out: Activity
SK-MEL-2 = experiment: Growth inhibition of human SK-MEL-2 cells assessed as cell growth at 10 uM after 48 hrs by sulforhodamine B assay; format: functional; conditions: SK-MEL-2, 48 h, read-out: Activity
SNB-19 = experiment: Growth inhibition of human SNB19 cells assessed as cell growth at 10 uM after 48 hrs by sulforhodamine B assay; format: functional; conditions: SNB-19, 48 h, read-out: Activity
HCT-116 = experiment: Growth inhibition of human HCT116 cells assessed as cell growth at 10 uM after 48 hrs by sulforhodamine B assay; format: functional; conditions: HCT-116, 48 h, read-out: Activity
MDA-MB-468 = experiment: Growth inhibition of human MDA-MB-468 cells after 48 hrs by sulforhodamine B assay; format: functional, cell-based; conditions: MDA-MB-468, 48 h
T47D = experiment: Growth inhibition of human T47D cells after 48 hrs by sulforhodamine B assay; format: functional
DU-145 = experiment: Growth inhibition of human DU145 cells after 48 hrs by sulforhodamine B assay; format: functional; conditions: DU-145, 48 h
TK-10 = experiment: Growth inhibition of human TK10 cells after 48 hrs by sulforhodamine B assay; format: functional; conditions: TK-10, 48 h
SK-OV-3 [5] = experiment: Growth inhibition of human SKOV3 cells after 48 hrs by sulforhodamine B assay; format: functional; conditions: SK-OV-3, 48 h
SK-MEL-5 [6] = experiment: Growth inhibition of human SK-MEL-5 cells after 48 hrs by sulforhodamine B assay; format: functional; conditions: SK-MEL-5, 48 h
SK-MEL-28 = experiment: Growth inhibition of human SK-MEL-28 cells after 48 hrs by sulforhodamine B assay; format: functional; conditions: SK-MEL-28, 48 h
SNB-75 = experiment: Growth inhibition of human SNB75 cells after 48 hrs by sulforhodamine B assay; format: functional; conditions: SNB-75, 48 h
U-251 = experiment: Growth inhibition of human U251 cells after 48 hrs by sulforhodamine B assay; format: functional; conditions: U-251, 48 h
SF-539 = experiment: Growth inhibition of human SF539 cells after 48 hrs by sulforhodamine B assay; format: functional; conditions: SF-539, 48 h
HL-60(TB) = experiment: Growth inhibition of human HL-60(TB) cells assessed as cell growth at 10 uM after 48 hrs by sulforhodamine B assay; format: functional; conditions: HL-60, 48 h, read-out: Activity
[7] = read-out: LC50 (the source's name)

With `COc1cc(-c2nn(-c3cccc(NC(=O)Nc4cc(C(F)(F)F)cc(C(F)(F)F)c4)c3)cc2-c2ccncc2)ccc1Cl` the growth at 10 µM (BT-549) was -8.96%, the growth at 10 µM [1] was -25.8% and the growth at 10 µM (UO-31) was -29.2%. It also gave a growth at 10 µM (PC-3) of -55.2%, a growth at 10 µM (SN12C) of -8.08% and a GI50 (HT-29) of 0.702 µM. For the same compound, the TGI (HT-29) was 1.61 µM, the CC50 (HT-29; [7]) was 3.71 µM and the GI50 [2] was 0.931 µM. It also gave a TGI [2] of 1.87 µM, a CC50 [2, 7] of 3.76 µM and a GI50 (NCI-H23) of 1.09 µM. For the same compound, the LC50 (NCI-H23) was 29.6 µM, the TGI (NCI-H23) was 3.34 µM and the GI50 (A549) was 0.527 µM. For the same compound, the LC50 (concentration killing 50% of starting cells) (A549) was 18 µM, the TGI (A549) was 2.13 µM and the GI50 (RPMI-8226) was 0.307 µM. For the same compound, the IC50 (RPMI-8226) was 0.31 µM, the TGI (RPMI-8226) was > 50 µM and the CC50 (RPMI-8226; [7]) was > 50 µM. The GI50 (K562) was 0.363 µM, the TGI (K562) was 3.25 µM and the CC50 (K562; [7]) was > 50 µM. For the same compound, the growth at 10 µM (RXF 393) was -68.1%, the growth at 10 µM (ACHN) was 10.6% and the growth at 10 µM (786-0) was -71.1%. For the same compound, the growth at 10 µM (A498) was -14.6%, the growth at 10 µM (SK-OV-3 [3]) was -9.79% and the growth at 10 µM (OVCAR-3) was -57.9%. For the same compound, the growth at 10 µM (UACC-62) was -55.9%, the growth at 10 µM (UACC-257) was -45.1% and the growth at 10 µM (SK-MEL-5 [4]) was -96.1%. It also gave a growth at 10 µM (SK-MEL-2) of -52.1%, a growth at 10 µM (SNB-19) of 6.55% and a growth at 10 µM (HCT-116) of -43.6%. For the same compound, the GI50 (MDA-MB-468) was 0.307 µM, the IC50 (MDA-MB-468) was 0.31 µM and the TGI (MDA-MB-468) was 1.54 µM. The CC50 (MDA-MB-468; [7]) was 24.3 µM, the GI50 (T47D) was 1.55 µM and the TGI (T47D) was > 50 µM. For the same compound, the CC50 (T47D; [7]) was > 50 µM, the GI50 (DU-145) was 1.31 µM and the LC50 (DU-145) was 21.1 µM. For the same compound, the TGI (DU-145) was 5.04 µM, the GI50 (TK-10) was 0.894 µM and the TGI (TK-10) was 2.48 µM. The CC50 (TK-10; [7]) was 10.1 µM, the GI50 (SK-OV-3 [5]) was 1.09 µM and the TGI (SK-OV-3 [5]) was 2.57 µM. The CC50 (SK-OV-3 [5]; [7]) was 15.4 µM, the GI50 (SK-MEL-5 [6]) was 0.694 µM and the LC50 (concentration killing 50% of cells) (SK-MEL-5 [6]) was 2.67 µM. The TGI (SK-MEL-5 [6]) was 1.36 µM, the GI50 (SK-MEL-28) was 0.851 µM and the LC50 (SK-MEL-28) was 3.38 µM. It also gave a TGI (SK-MEL-28) of 1.7 µM, a GI50 (SNB-75) of 0.858 µM and an LC50 (lethal concentration, 50% net cell kill) (SNB-75) of 5.31 µM. The TGI (SNB-75) was 2.07 µM, the GI50 (U-251) was 0.59 µM and the LC50 (concentration killing 50% of cells) (U-251) was 3.18 µM. The TGI (U-251) was 1.37 µM, the GI50 (SF-539) was 0.829 µM and the LC50 (concentration killing 50% of cells) (SF-539) was 3.54 µM. For the same compound, the TGI (SF-539) was 1.71 µM and the growth at 10 µM (HL-60(TB)) was -20.2%.
